Experimental data: the Biogen ADME set (Fang et al. 2023)
In brackets after ≈: the same amount, converted by molar mass.

Settings: for aqueous solubility: pH 6.8

| SMILES | MDR1-MDCK efflux ratio | intrinsic clearance, human liver microsomes | intrinsic clearance, rat liver microsomes | aqueous solubility | fraction unbound, human plasma | fraction unbound, rat plasma |
| --- | --- | --- | --- | --- | --- | --- |
| COc1cc(OCc2ccccn2)ccc1/C=C/c1cc(/C=C/c2ccc3cc[nH]c3c2)[nH]n1 | – | – | – | 0.61 µg/mL (≈ 1.36 µM) | – | – |
| COc1ccc(/C=C/C(=O)c2c(C)nc3ccccc3c2N)cc1 | 0.197 | 182 mL/min/kg | 1190 mL/min/kg | 39.6 µg/mL (≈ 124 µM) | – | – |
| COC(=O)[C@@H]1C[C@H](O)CN1CCc1ccccc1F | 0.726 | – | 3370 mL/min/kg | 56.8 µg/mL (≈ 212 µM) | – | – |
| CN(Cc1ccc2c(c1)OCO2)Cc1ccccc1C#N | 0.351 | 87.8 mL/min/kg | 4100 mL/min/kg | 28.1 µg/mL (≈ 100 µM) | – | – |
| CCCN1CCn2nc(-c3nc4cc(OC)ccc4[nH]3)cc2C1 | 0.825 | ≤ 4.74 mL/min/kg | 280 mL/min/kg | 40.1 µg/mL (≈ 129 µM) | – | – |
| COc1cc2c(cc1OC)CN(C(=O)C1CCCN(C(=O)Nc3ccccc3)C1)CC2 (stereo not given) | 27 | ≤ 4.74 mL/min/kg | 65.1 mL/min/kg | 65.5 µg/mL (≈ 155 µM) | – | – |
| Cc1ccc(C(=O)C2CCN(CC(=O)NC(=O)Nc3ccccc3)CC2)c(C)c1 | 0.559 | 64.3 mL/min/kg | 936 mL/min/kg | – | – | – |
| CC1CCC(NC(=O)c2oc3ccccc3c2CS(C)=O)CC1 (stereo not given) | 2.52 | 15.2 mL/min/kg | 154 mL/min/kg | 68.8 µg/mL (≈ 206 µM) | – | – |
| COc1ncnc2c1CN(Cc1c[nH]nc1-c1ccc(F)cc1)CC2 | 7.03 | 70.7 mL/min/kg | 210 mL/min/kg | 28.4 µg/mL (≈ 83.5 µM) | – | – |
| C=CC(=O)Nc1cccc(Sc2nc(Nc3ccc(N4CCN(C)CC4)cc3)ncc2Cl)c1 | – | – | – | 0.4 µg/mL (≈ 0.832 µM) | – | – |
| C[C@@H](NC(=O)c1cc(Br)c2c(c1)OCCO2)c1cn(-c2ccccc2)nn1 | 3.48 | – | – | – | – | – |
| CCCS(=O)(=O)N1CCCC(C(=O)N2CCc3ccccc3C2)C1 (stereo not given) | 1.87 | 62 mL/min/kg | 1010 mL/min/kg | 54.8 µg/mL (≈ 156 µM) | – | – |
| O=C(Nc1ccccn1)c1cccc2ccccc12 | – | 131 mL/min/kg | 140 mL/min/kg | 35.3 µg/mL (≈ 142 µM) | – | – |
| CN(C)C(=O)Cn1cc(C(=O)O)ccc1=O | – | ≤ 4.74 mL/min/kg | ≤ 10.7 mL/min/kg | 21.1 µg/mL (≈ 93.9 µM) | – | – |
| O=c1[nH]c2ccccc2n1C1CCN(Cc2nc(Cc3ccccc3)no2)CC1 | – | 69.7 mL/min/kg | 857 mL/min/kg | – | – | – |
| CC(C)(C(=O)NCc1ccccn1)c1ccccc1 | 0.736 | ≤ 4.74 mL/min/kg | 138 mL/min/kg | 77.6 µg/mL (≈ 305 µM) | – | – |
| COc1cc2c(cc1NC(C)=O)oc1ccccc12 | 0.379 | 117 mL/min/kg | 63.7 mL/min/kg | 34.4 µg/mL (≈ 135 µM) | – | – |
| Cc1nc2ncc3c(n2n1)CCCC3=O | 0.752 | ≤ 4.74 mL/min/kg | ≤ 10.7 mL/min/kg | – | – | – |
| CN1CCN(C(=O)C2(NC(=O)c3ccc(C(F)(F)F)cc3)CCCC2)CC1 | 86 | ≤ 4.74 mL/min/kg | ≤ 10.7 mL/min/kg | 76.1 µg/mL (≈ 199 µM) | – | – |
| CC(C)NC(=O)CN(C#N)c1ccccc1 | – | ≤ 4.74 mL/min/kg | ≤ 10.7 mL/min/kg | – | – | – |
| Cc1nc2cc(=O)[nH]n2c(C)c1CC(=O)OC1CCCCC1 | 1.09 | 10.5 mL/min/kg | 649 mL/min/kg | – | – | – |

| SMILES | MDR1-MDCK efflux ratio | intrinsic clearance, human liver microsomes | intrinsic clearance, rat liver microsomes | aqueous solubility | fraction unbound, human plasma | fraction unbound, rat plasma |
| --- | --- | --- | --- | --- | --- | --- |
| Cc1nc(NCc2ccc(F)cc2)n(C)n1 | 0.975 | ≤ 4.74 mL/min/kg | ≤ 10.7 mL/min/kg | – | – | – |
| Nc1nc2ccccc2n1C1CCCC1 | – | 37.1 mL/min/kg | 87.6 mL/min/kg | – | – | – |
| Cc1cccc(NCCc2cc(F)cc3c2OCOC3)n1 | 0.374 | 397 mL/min/kg | 5180 mL/min/kg | – | – | – |
| Cc1nn(C)c(C)c1CNc1ccc(N2CCN(C)CC2)nc1 | – | ≤ 4.74 mL/min/kg | ≤ 10.7 mL/min/kg | – | – | – |
| CN(C)Cc1cccc(N/C(=C2\C(=O)Nc3cc(C(=O)N(C)C)ccc32)c2ccccc2)c1 | 45.4 | 76.2 mL/min/kg | 152 mL/min/kg | 65.7 µg/mL (≈ 149 µM) | – | – |
| COc1ncc(C(=O)NCc2cnn3cccnc23)cn1 | 2.54 | ≤ 4.74 mL/min/kg | ≤ 10.7 mL/min/kg | – | – | – |
| COC(=O)c1cccc2c1CCCN2C(=O)c1ccc(F)cc1F | 0.708 | 1150 mL/min/kg | 2000 mL/min/kg | – | – | – |
| CC1=NN(c2ccc(F)cc2)C(=O)/C1=C(/C)Nc1ccc(S(N)(=O)=O)cc1 | 12 | ≤ 4.74 mL/min/kg | ≤ 10.7 mL/min/kg | 28.4 µg/mL (≈ 73 µM) | – | – |
| CC(C)C(=O)N1CCn2nc(CNC3CCc4ccccc4CC3)cc2C1 | 27.1 | ≤ 4.74 mL/min/kg | 205 mL/min/kg | – | – | – |
| CCOC(=O)N1CCC(C(=O)Nc2cccc(C)c2)CC1 | – | – | – | 56.3 µg/mL (≈ 194 µM) | – | – |
| O=C(COC(=O)c1cc(O)nc2ccccc12)c1ccc(Oc2c(Cl)cccc2[N+](=O)[O-])cc1 | – | 986 mL/min/kg | 184 mL/min/kg | – | – | – |
| CCOC(=O)C1(Cc2cc(-c3cccc(F)c3)no2)CCN(Cc2ccccc2O)CC1 | – | – | – | 0.68 µg/mL (≈ 1.55 µM) | – | – |
| Cc1ccccc1-c1cc(N)n(Cc2ccccc2)n1 | – | 33.2 mL/min/kg | 302 mL/min/kg | – | – | – |
| Fc1ccc(-c2ccc3c(c2)[nH]c2ccncc23)cn1 | 0.469 | 16.8 mL/min/kg | 162 mL/min/kg | – | 0.045 | 0.0437 |
| CCn1nccc1CNc1ncccn1 | 0.592 | ≤ 4.74 mL/min/kg | ≤ 10.7 mL/min/kg | – | – | – |
| N#CC1(NC(=O)Cc2cc3c(ccc4ccccc43)o2)CCOCC1 | – | 87.3 mL/min/kg | 705 mL/min/kg | – | – | – |
| NCC(=O)Nc1ccc(-n2nc(C(F)(F)F)cc2-c2ccc3c(ccc4ccccc43)c2)cc1 | 2.96 | – | – | 0.25 µg/mL (≈ 0.543 µM) | – | – |
| CC(C)C(=O)N1CCC(Nc2ncnc3ccsc23)CC1 | 6.55 | ≤ 4.74 mL/min/kg | 19.2 mL/min/kg | 48 µg/mL (≈ 158 µM) | – | – |
| COc1ccc(F)cc1-c1ccc(-c2nnco2)cc1 | – | 23.8 mL/min/kg | 333 mL/min/kg | – | – | – |
| O=C(O)c1c(O)c(Cc2ccc(Cl)cc2)nc2c3c(ccc12)CCCC3 | – | – | – | 0.79 µg/mL (≈ 2.15 µM) | – | – |

The next lines start with the values.

| MDR1-MDCK efflux ratio | intrinsic clearance, human liver microsomes | intrinsic clearance, rat liver microsomes | aqueous solubility | fraction unbound, human plasma | fraction unbound, rat plasma | SMILES |
| --- | --- | --- | --- | --- | --- | --- |
| 0.978 | 5.86 mL/min/kg | 14.5 mL/min/kg | 37.6 µg/mL (≈ 152 µM) | – | – | CNC(=O)Cc1nc(-c2cncc(C)c2)cs1 |
| 51.4 | 185 mL/min/kg | 473 mL/min/kg | 70.2 µg/mL (≈ 178 µM) | – | – | CCN1C(=O)CC[C@H](C(=O)N2CCc3cc(F)cc(C)c3C2)[C@H]1c1ccncc1 |
| 4.41 | ≤ 4.74 mL/min/kg | 95.2 mL/min/kg | – | – | – | CN(CCN1CCCCC1)c1cncc(C(N)=O)n1 |
| 24.4 | 33.2 mL/min/kg | 394 mL/min/kg | 51.4 µg/mL (≈ 139 µM) | – | – | O=C(Nc1nccs1)C1CCN(C(=O)CN2CCc3ccccc32)CC1 |
| 0.542 | ≤ 4.74 mL/min/kg | 230 mL/min/kg | 35.3 µg/mL (≈ 165 µM) | – | – | Cc1ccnc(Oc2cc(N)ccc2C)c1 |
| 0.708 | 5.23 mL/min/kg | 31.3 mL/min/kg | 33.8 µg/mL (≈ 159 µM) | – | – | O=C(NC1CC1)c1cccc2cccnc12 |
| – | 31 mL/min/kg | 2980 mL/min/kg | 43 µg/mL (≈ 136 µM) | – | – | O=C(COc1ccc2oc3c(c2c1)CCCC3)N1CCOCC1 |
| 11.7 | 7.14 mL/min/kg | 44.7 mL/min/kg | – | – | – | C[C@]1(O)CN(C(=O)Cn2cnc3ccccc3c2=O)CC[C@@H]1Oc1ccccc1 |
| 0.727 | 1000 mL/min/kg | 4270 mL/min/kg | 4.5 µg/mL (≈ 11.2 µM) | – | – | O=C(CCc1ccccc1)N1CCC(c2cccc(Cc3ccc(F)cc3)n2)CC1 |
| 97.9 | 108 mL/min/kg | 557 mL/min/kg | 60.3 µg/mL (≈ 102 µM) | 0.00624 | 0.00368 | CCc1nc2c(C)cc(N3CCN(CC(=O)N4CC(O)C4)CC3)cn2c1N(C)c1nc(-c2ccc(F)cc2)c(C#N)s1 |
| 0.576 | 131 mL/min/kg | 1280 mL/min/kg | – | – | – | CN(Cc1nc2c(s1)CCCC2)c1cnccn1 |
| 29 | 36.2 mL/min/kg | 415 mL/min/kg | 56.2 µg/mL (≈ 163 µM) | – | – | Cn1cc(C(=O)NCCc2c[nH]c3ccccc23)c(-c2cccnc2)n1 |
| 0.697 | ≤ 4.74 mL/min/kg | ≤ 10.7 mL/min/kg | 26.5 µg/mL (≈ 131 µM) | – | – | N#Cc1ccc(Cn2cncn2)c(F)c1 |
| 1.17 | ≤ 4.74 mL/min/kg | 42.6 mL/min/kg | – | – | – | Cn1cc(-c2cccc3c(C(N)=O)cccc23)cn1 |
| 11.2 | ≤ 4.74 mL/min/kg | 458 mL/min/kg | – | – | – | CN1CCC(O)(CNC(=O)C2CCCCCC2)CC1 |
| 0.401 | 398 mL/min/kg | 4200 mL/min/kg | 37.3 µg/mL (≈ 131 µM) | – | – | CCOc1ccc(-c2ccccc2NC(=O)COC)cc1 |
| – | 20.6 mL/min/kg | 189 mL/min/kg | – | – | – | CCN(CC)C(=O)Oc1cccc2cccnc12 |
| – | ≤ 4.74 mL/min/kg | ≤ 10.7 mL/min/kg | 42.9 µg/mL (≈ 143 µM) | – | – | C#CCN1CCN(Cc2nc(O)cc(C(F)(F)F)n2)CC1 |
| 3.98 | 114 mL/min/kg | 1110 mL/min/kg | – | – | – | CC(C)CCNC(=O)CSc1nc2ccccc2[nH]1 |
